In data set [1] the test system is Aedes Aegypti female mosquitoes. Nature of the data set: Knockdown efficacy against mosquitoes in glass chamber. In kind it is in vivo. The following applies: for pest or weed control at 5 mg/strip: Aedes aegypti, 24 h, read-out: Dead (%); for KD50 / KD80 / Dead (%): Barex strips coated with 5 mg of each active; for KD50 / KD80: 20 min test period; for knockdown / biological activity in glass chamber (in words): fresh samples, 5 mg, 20 minute test period; for Dead (%): 24 hours post treatment. As for the experimental part: Markings were made to identify the side to be treated with the active. Markings were also made to leave one inch spacing on either ends 12 and 14 of the strip 10 to enable handling. Intermediate solutions of the active in organic solvents were prepared. A micropipettor, calibrated to transfer a known amount of intermediate solution on to the strip, was used to dose the strip with the active. The solution, after transferring onto the strip 10, was made to wet a 2 inch by 8 inch area 16 between ends 12 and 14, and allowed to sit on the bench top until most of the solvent evaporated and the strips appeared dry (which took 15 minutes to 30 minutes). Strips 10 were then either folded twice and held together with a metal clip and kept in a glass jar or were wrapped in aluminum foil and kept in a sealed plastic bag. These were then stored in the refrigerator at −10° C. until further use.
A Glass chamber (0.75 m×0.75 m×0.75 m) was used for the test and was maintained at 80° F. and 50% relative humidity. Three treated strips were placed on a card board tray covered with an aluminum foil and then transferred to the glass chamber. The strips were exposed in the chamber for three minutes to allow insecticide vapors build-up in the enclosed air. Strips were then quickly removed, folded and stored in the refrigerator. Ten laboratory-cultured adult Aedes Aegypti female mosquitoes were released into the chamber. […] After 20 minutes of exposure, all mosquitoes were collected and placed in a container with sucrose pad. […] KD50, KD80, and % Dead values of the tests were obtained for analysis. KD50 and KD80 are defined as the time taken for 50% and 80% of the mosquitoes to get knocked down and % Dead is simply the percentage of mosquitoes that are dead after 24 hour period. The glass chamber was then dismantled and thoroughly wiped with soap solution to remove contamination of the active. The walls were then wiped with a paper towel and allowed to dry before assembling again for the next run.

Data set [2] is described as follows: Release of active in wind tunnel (residual analysis). In kind it is physicochemical. As to conditions: for % Evap Barex: 5 mg transfluthrin coated on Barex (103 sq. cm.) from the named solvent; for % Evap Filter Paper: 5 mg transfluthrin coated on filter paper (103 sq. cm.) from the named solvent. The text has this:
A computer controlled wind tunnel was custom designed using a fan 18 for drawing fresh air designated by arrows 20 past baffles 22 into a chamber 28 containing multiple strips 10 to determine the release of actives from these strips under controlled environmental conditions (see FIG. 2).
Preset wind velocities can be entered into the computer and maintained without operator's involvement during the testing period. Honey comb flow straighteners 24 and 26 were placed on either ends of the wind tunnel to obtain uniform velocity profiles. Strips 10 were placed on the floor of a 12 inch by 12 inch cross sectioned body in triplicates in a staggered fashion so as to equalize any possible errors that arise from spatial dependency of air velocity. All studies were carried out at a constant air flow rate of 2 meters per second as determined by a velocity probe 30 in chamber 28 and at an ambient temperature of 70° F. for 72 hours. The exhaust designated by arrows 32 of the wind tunnel was directly connected to the building ventilation duct to prevent Transfluthrin contamination of the lab. Strips 10 were removed at predetermined intervals and stored in the refrigerator for subsequent analytical or biological testing.
(§1) A validated analytical method was used to determine the residual level of active on the strips using gas chromatography. All samples were analyzed using this method to determine evaporation losses and release rates in the wind tunnel.

The nature of data set [3]: Residual analysis and release rate of large chamber samples. In kind it is physicochemical. How it is done: as §1
The 8 hour aged strips were also sent to analytical for residual analysis. Results, as summarized in Table 18, indicate that the average release of transfluthrin during the 8 hour period is ˜0.2 mg/hr.
Lab studies were also conducted on a portable electric device where a corrugated disc was impregnated with 280 mg of transfluthrin. The disc was placed in a device which has a fan that runs on a battery. Air flows through the holes of the disc releasing the transfluthrin into the environment. Lab studies were conducted on this unit to determine its efficacy. […] Weight loss experiments were also conducted to determine the release rates from this unit.

A further data set concerns Culex quinquefasciatus. Nature of the data set: Field trials in living rooms, human bare-leg catch. In kind it is in vivo. As to conditions: Malaysia field study. How it is done:
Field trials against Culex quinquefasciatus were conducted in living rooms of residential houses in a squatter area at Ujung Batu, Butterworth on the Northwest peninsula of Malaysia on plastic strips coated with transfluthrin. […] A total of four configurations were tested.
Config. A 2 sheets hung together on each of four walls
Config. B 1 sheet hung on each four walls
Config. C 1 sheet hung on each two opposite walls
Config. D 1 sheet hung on a wall
The average volume of the rooms where the test is conducted is 75.5 cubic meters […]. The human baits were seated 1-2 meters away from all the treated sheets and the efficacy was evaluated using the human bare-leg catch technique during the first 0-2 hours, 24 hours, 96 hours, and 168 hours the placing of the test sheets in the rooms.
These tests were conducted under a rigorous test environment. The predominant species collected during the trials was Culex quinquefasciatus which are most tolerant to pyrethroid based household insecticide products among the common mosquitoes found in the living premises in tropical and subtropical regions globally. Due to the local weather changes, the squatter area chosen for the trials indicated lower indoor mosquito density during the pretreatment and treatment trials.

On to `Cc1c(F)c(F)c(COC(=O)[C@@H]2[C@H](/C=C(\Cl)C(F)(F)F)C2(C)C)c(F)c1F` (racemic) [Tefluthrin], for which, in data set [1], the pest or weed control at 5 mg/strip worked out at 100%, the “KD50” value is reported as 13.00 min, the “KD80” value is reported as 16.67 min and the “knockdown / biological activity in glass chamber (in words)” value (“knockdown / biological activity” for short) was “relatively lower activity”. Also, the “KD50” value in data set [1] (listed as tefluthrin) is recorded as 13 min.
As for `CCC(C)O` (centres unmarked) [2-Butanol], in data set [2], the “% Evap Barex” value amounted to 60.3% and the “% Evap Filter Paper” value is on record as 67.1%.
For `CC(C)=O` [Acetone], in that order: 58.3% and 57.7%.
For `C=CCC1=C(C)C(OC(=O)[C@@H]2[C@@H](C=C(C)C)C2(C)C)CC1=O` (some centres unmarked) [Bioallethrin], in data set [1], the “KD50” value is >20 min, the “KD80” value was >20 min, the “Dead (%)” value is 0% and the “knockdown / biological activity” value is “either minimal activity or no activity at all”.
`CC1(C)C(C=C(Cl)Cl)C1C(=O)OC(C#N)c1cccc(Oc2ccccc2)c1` (centres unmarked) [Cypermethrin]: in data set [1], the pest or weed control at 5 mg/strip came out at 0%, the “KD50” value is recorded as >20 min, the “KD80” value is >20 min and the “knockdown / biological activity” value is “either minimal activity or no activity at all”.
As for `CCN(CC)C(=O)c1cccc(C)c1` [DEET], in data set [1], the “KD50” value is given as >20 min, the “KD80” value was >20 min, the “Dead (%)” value amounted to 0% and the “knockdown / biological activity” value is listed as “either minimal activity or no activity at all”.
In the case of `CC1(C)[C@H](C(=O)O[C@H](C#N)c2cccc(Oc3ccccc3)c2)[C@@H]1C=C(Br)Br` [Deltamethrin], in data set [1], the pest or weed control at 5 mg/strip came out at 20%, the “KD50” value is >20 min, the “KD80” value was >20 min and the “knockdown / biological activity” value was “either minimal activity or no activity at all”.
Take `CCOP(=S)(OCC)Oc1nc(Cl)c(Cl)cc1Cl` [Dursban]: in data set [1], the pest or weed control at 5 mg/strip worked out at 0%, the “KD50” value is >20 min, the “KD80” value is listed as >20 min and the “knockdown / biological activity” value is “either minimal activity or no activity at all”.
`C#CCC1=C(C)C(OC(=O)C2C(C=C(C)C)C2(C)C)CC1=O` (centres unmarked) [ETOC]: in data set [1], the “KD50” value is >20 min, the “KD80” value is given as >20 min, the “Dead (%)” value came to 0% and the “knockdown / biological activity” value is listed as “either minimal activity or no activity at all”.
In the case of `CCO` [Ethanol], in data set [2], the “% Evap Barex” value was found to be 70.3% and the “% Evap Filter Paper” value is 45.0%.
On the same counts, the results for `CCOC(C)=O` [Ethyl Acetate] are 57.6% and 61.1%.
Regarding `CC(C)C(C(=O)OC(C#N)c1cccc(Oc2ccccc2)c1)c1ccc(Cl)cc1` (centres unmarked) [Fenvalerate], in data set [1], the pest or weed control at 5 mg/strip stood at 0%, the “KD50” value is reported as >20 min, the “KD80” value was >20 min and the “knockdown / biological activity” value is recorded as “either minimal activity or no activity at all”.
In the case of `CCCCCCC` [Heptane], in data set [2], the “% Evap Barex” value is reported as 86.8% and the “% Evap Filter Paper” value came out at 78.5%.
Consider `CC(C)O` [IPA, isopropyl alcohol], for which, in data set [2], the “% Evap Barex” value is recorded as 50.3% and the “% Evap Filter Paper” value is reported as 49.0%.
On the same counts, the results for `CC(=O)OCC(C)C` [Isobutyl Acetate] are 70.9% and 63.8%.
For the compound `CCC(C)=O` [MEK], in data set [2], the “% Evap Barex” value came out at 67.5% and the “% Evap Filter Paper” value worked out at 62.4%.
On the same counts, the results for `CO` [Methanol] are 58.3% and 47.0%.
`COC(C)=O` [Methyl Acetate]: in data set [2], the “% Evap Barex” value was 57.6% and the “% Evap Filter Paper” value is on record as 55.7%.
For the compound `CC1(C)C(C=C(Cl)Cl)C1C(=O)OCc1cccc(Oc2ccccc2)c1` (centres unmarked) [Permanone], in data set [1], the “KD50” value is given as >20 min, the “KD80” value is recorded as >20 min, the “Dead (%)” value amounted to 0% and the “knockdown / biological activity” value is on record as “either minimal activity or no activity at all”.
In the case of `CNC(=O)Oc1ccccc1OC(C)C` [Propoxur], in data set [1], the “knockdown / biological activity” value is reported as “either minimal activity or no activity at all”.
Take `CC(C)=CC1C(C(=O)OCc2coc(Cc3ccccc3)c2)C1(C)C` (centres unmarked) [Resmethrin]: in data set [1], the pest or weed control at 5 mg/strip worked out at 10%, the “KD50” value is on record as >20 min, the “KD80” value is >20 min and the “knockdown / biological activity” value was “either minimal activity or no activity at all”.
Consider `CC(C)=CC1C(C(=O)OCc2cccc(Oc3ccccc3)c2)C1(C)C` (centres unmarked) [Sumithrin], for which, in data set [1], the pest or weed control at 5 mg/strip came out at 0%, the “KD50” value was >20 min, the “KD80” value was >20 min and the “knockdown / biological activity” value is “either minimal activity or no activity at all”.
Consider `C1CCOC1` [THF], for which, in data set [2], the “% Evap Barex” value is listed as 59.6% and the “% Evap Filter Paper” value came to 56.4%.
On the same counts, the results for `Cc1ccccc1` [Toluene] are 60.9% and 58.4%.
With `CC1(C)[C@H](C=C(Cl)Cl)[C@H]1C(=O)OCc1c(F)c(F)cc(F)c1F` [Transfluthrin, (IR-trans)-(2,3,5,6-tetrafluorophenyl)methyl 3-(2,2-dichoroethenyl)-2,2-dimethyl cyclopropane carboxylate], in data set [1], the pest or weed control at 5 mg/strip was found to be 100%, the “KD80” value was determined as 6.83 min and the “knockdown / biological activity” value is “highest activity”. In addition, the “Transfluthrin loss in 8 hr” value in data set [3] (Barex strip on fan at 3.5 m/s) is on record as 1.5 mg. Also, in data set [3] (average during the 8 hour period, Barex strip on fan, listed as transfluthrin), the “Release rate of Transfluthrin” value is ~0.2 mg/h. Besides, the “transfluthrin release rate sufficient to achieve practical control” value in the data set with Culex quinquefasciatus is 0.18 mg/h.
For the compound `C#CC(OC(=O)C1C(C=C(C)C)C1(C)C)/C(C)=C/CC` (centres unmarked) [Vapothrin], in data set [1], the “KD50” value is listed as >20 min, the “KD80” value was >20 min, the “Dead (%)” value was determined as 0% and the “knockdown / biological activity” value is recorded as “either minimal activity or no activity at all”.

The values above are taken from patent publication US6534079B1, “Passive space insect repellant strip” (priority 1999, dated 2003).
